{"source": "patent US20220211710A1", "about": "“COMPOSITIONS AND METHODS FOR TREATING CANCER WITH NUCLEOSIDE-METABOLISM MODULATORS” (The Regents of the University of California, priority 2019, published 2022)", "assay_type_in_all_cases": "cell-based, human", "key": {"SUIT2 SAMHD1 KO cells [1]": {"system": "SUIT2 SAMHD1 KO cells", "experiment": "Cell Titer Glo proliferation, SUIT2 SAMHD1 knockout", "conditions": "72 h", "experimental": "(§1) For CellTiter-Glo analysis cells were plated at 1×10^3 cells/well in 50 μl/well in white opaque 384-well plates and treated as described. Following incubation 50 μl of CellTiter-Glo reagent (Diluted 1:5 in dH2O) was added to each well, plates incubated at room temperature for 5 m and luminescence was measured using a BioTek microplate luminescence reader. Proliferation rate normalized growth inhibition was calculated using the previously described GR metric (Hafner et al., 2016)."}, "T-ALL cell lines": {"system": "T-ALL cell lines", "experiment": "Propidium iodide cell cycle analysis, T-ALL models", "conditions": "T-ALL models only, 5 μM dG + 1 μM BCX-1777, 24 h", "experimental": "(§2) Treated cells were washed with PBS and suspended in propidium iodide cell cycle staining solution (100 μg/ml propidium iodide; 20 μg/ml Ribonuclease A). 10,000 events were collected per sample. All flow cytometry data were acquired on five-laser BD LSRII, and analyzed using FlowJo software (Tree Star)."}, "[2]": {"system": "CCRF-CEM CDA over expressing cells", "experiment": "Cell Titer Glo proliferation, CCRF-CEM CDA over-expressing", "conditions": "CCRF-CEM overexpressing CDA, 10 μM dG + 1 μM BCX-1777 + dC, 72 h", "experimental": "as §1"}, "[3]": {"system": "SAMHD1-deficient primary melanoma cell lines", "experiment": "Crystal violet proliferation analysis, SAMHD1-deficient primary melanoma models", "conditions": "1 μM PNPi + 10 μM dG, 7 d", "experimental": "(§3) For crystal violet staining, cells were plated in 6-well cell culture plates at 1×10^4 cells/well and treated as described. Following treatment cells were fixed by incubating in 4% PFA in PBS for 15 m at room temperature. Plates were subsequently washed with PBS and stained with 0.1% crystal violet in H2O for 15 m at room temperature."}, "HCC827 cells [4]": {"system": "HCC827 cells", "experiment": "Propidium iodide cell cycle analysis, HCC827", "conditions": "HCC827, 5 μM dG + 1 μM BCX-1777, 24 h", "experimental": "as §2"}, "HCC827 cells [5]": {"system": "HCC827 cells", "experiment": "Cell Titer Glo proliferation, HCC827", "conditions": "for IC50: Homo sapiens, HCC827, 72 h, +10 μM dG", "experimental": "as §1"}, "[6]": {"system": "SAMHD1-deficient primary melanoma cell lines", "experiment": "Propidium iodide cell cycle analysis, SAMHD1-deficient primary melanoma models", "conditions": "only SAMHD1-deficient melanoma models, 1 μM PNPi + 10 μM dG, 24 h", "experimental": "as §2"}, "CCRF-CEM cells [7]": {"system": "CCRF-CEM cells", "experiment": "Immunoblot analysis, CCRF-CEM", "conditions": "5 μM dG + 1 μM BCX-1777, 24 h", "experimental": "(§4) PBS-washed cell pellets were re-suspended in cold RIPA buffer supplemented with protease and phosphatase inhibitors. Protein lysates were normalized using BCA assay, diluted using RIPA and 4× laemmli loading dye, resolved on 4-12% Bis-Tris gels and electro-transferred to nitrocellulose membranes. After blocking with 5% nonfat milk in TBS+0.1% Tween-20 (TBS-T), membranes were incubated overnight in primary antibodies diluted (per manufacturers instructions) in 5% BSA in TBS-T. Membranes were washed with TBST-T and incubated with HRP-linked secondary antibodies prepared at a 1:2500 dilution in 5% nonfat dry milk in TBS-T. HRP was activated by incubating membranes with a mixture of SuperSignal Pico and SuperSignal Femto ECL reagents (100:1 ratio). Exposure of autoradiography film was used for detection."}, "SUIT2 cells [8]": {"system": "SUIT2 cells", "experiment": "Immunoblot analysis, SUIT2 wild-type", "conditions": "SUIT2 parental, 5 μM dG + 1 μM forodesine, 24 h", "experimental": "as §4"}, "[9]": {"system": "CCRF-CEM SAMHD1 over-expressing cells", "experiment": "Cell Titer Glo proliferation, CCRF-CEM SAMHD1 over-expressing", "experimental": "as §1"}, "[10]": {"system": "CCRF-CEM SAMHD1 over-expressing cells", "experiment": "Propidium iodide cell cycle analysis, CCRF-CEM SAMHD1 over-expressing", "conditions": "CCRF-CEM expressing SAMHD1, 5 μM dG + 1 μM BCX-1777, 24 h", "experimental": "as §2"}, "NALM6 cells [11]": {"system": "NALM6 cells", "experiment": "Immunoblot analysis, NALM6", "conditions": "NALM6, 5 μM dG + 1 μM BCX-1777, 24 h", "experimental": "as §4"}, "SUIT2 SAMHD1 KO cells [12]": {"system": "SUIT2 SAMHD1 KO cells", "experiment": "Immunoblot analysis, SUIT2 SAMHD1 knockout", "experimental": "as §4"}, "JURKAT cells": {"system": "JURKAT cells", "experiment": "Cell Titer Glo proliferation, JURKAT", "experimental": "as §1"}, "SUIT2 SAMHD1 KO cells [13]": {"system": "SUIT2 SAMHD1 KO cells", "experiment": "Crystal violet proliferation analysis, SUIT2 SAMHD1 knockout", "conditions": "7 d", "experimental": "as §3"}, "CCRF-CEM cells [14]": {"system": "CCRF-CEM cells", "experiment": "Cell Titer Glo proliferation, CCRF-CEM (YFP control)", "experimental": "as §1"}, "HCC827 cells [15]": {"system": "HCC827 cells", "experiment": "Crystal violet proliferation analysis, HCC827", "conditions": "HCC827, 5 μM dG + 1 μM PNPi, 7 d", "experimental": "as §3"}, "B-ALL cell lines": {"system": "B-ALL cell lines", "experiment": "Cell Titer Glo proliferation, B-ALL models", "conditions": "5 μM dG + 1 μM BCX-1777, 72 h", "experimental": "as §1"}, "MOLT-4 cells": {"system": "MOLT-4 cells", "experiment": "Cell Titer Glo proliferation, MOLT-4", "conditions": "MOLT-4, 5 μM dG + 1 μM BCX-1777, 72 h", "experimental": "as §1"}, "NALM6 cells [16]": {"system": "NALM6 cells", "experiment": "Cell Titer Glo proliferation, NALM6", "conditions": "NALM6 (SAMHD1-proficient), 72 h, +1 μM dG", "experimental": "as §1"}, "SUIT2 cells [17]": {"system": "SUIT2 cells", "experiment": "Cell Titer Glo proliferation, SUIT2 wild-type", "conditions": "SUIT2 (SAMHD1-proficient), 72 h, +5 μM dG", "experimental": "as §1"}}}
{"compound": "NC(=S)N/N=C/c1ncccc1N", "note": "[3-AP]", "values": [{"measurement": "selectivity for SAMHD1 KO over WT cells", "setting": "SUIT2 SAMHD1 KO cells [1]; SUIT2 SAMHD1 KO vs WT", "value": "did not extend"}]}
{"compound": "O=c1[nH]cnc2c([C@@H]3N[C@H](CO)[C@@H](O)[C@H]3O)c[nH]c12", "note": "[Forodesine]", "values": [{"measurement": "percentage of sub-G1 cells (marker for cell death)", "setting": "T-ALL cell lines", "value": "increase in the percentage of sub-G1 cells"}, {"measurement": "dC rescue of the anti-proliferative effect of PNPi", "setting": "[2]", "value": "prevented this rescue"}, {"measurement": "proliferation, crystal violet", "setting": "[3]", "value": "selectively inhibited proliferation"}, {"measurement": "cell cycle", "setting": "HCC827 cells [4]", "value": "induced cell cycle arrest"}, {"measurement": "IC50", "setting": "HCC827 cells [5]", "value": 71, "unit": "nM"}, {"measurement": "cell cycle", "setting": "[6]", "value": "induced cell cycle arrest"}, {"measurement": "DNA damage (H2AXS139 phosphorylation)", "setting": "CCRF-CEM cells [7]", "value": "induced DNA damage"}, {"measurement": "apoptosis (cleaved caspase 3 accumulation)", "setting": "CCRF-CEM cells [7]", "value": "apoptosis"}, {"measurement": "response to PNPi (DNA damage)", "setting": "SUIT2 cells [8]", "value": "completely resistant"}, {"measurement": "anti-proliferative effect of PNPi", "setting": "[9]; CCRF-CEM expressing SAMHD1, 5 μM dG + 1 μM BCX-1777, 72 h", "value": "completely resistant"}, {"measurement": "cytotoxic effect of PNPi", "setting": "[10]", "value": "completely resistant"}, {"measurement": "DNA damage and apoptosis", "setting": "NALM6 cells [11]", "value": "not in NALM6 cells"}, {"measurement": "DNA damage in response to PNPi", "setting": "SUIT2 SAMHD1 KO cells [12]; SUIT2 SAMHD1 knockout, 5 μM dG + 1 μM forodesine, 24 h", "value": "exhibited DNA damage"}, {"measurement": "anti-proliferative effect of the combination with dG", "setting": "JURKAT cells; JURKAT, 5 μM dG + 1 μM BCX-1777, 72 h", "value": "eradicated"}, {"measurement": "proliferation, crystal violet", "setting": "SUIT2 SAMHD1 KO cells [13]; only SUIT2 SAMHD1 knockout cells, 5 μM dG + 1 μM PNPi", "value": "could be prevented"}, {"measurement": "proliferation with dC supplementation", "setting": "CCRF-CEM cells [14]; CCRF-CEM YFP, 10 μM dG + 1 μM BCX-1777 + 1 μM dC, 72 h", "value": "60 % of control"}, {"measurement": "proliferation", "setting": "CCRF-CEM cells [14]; CCRF-CEM YFP, 10 μM dG + 1 μM BCX-1777, 72 h", "value": "1 % of control"}, {"measurement": "anti-proliferative effect of the combination with dG", "setting": "CCRF-CEM cells [14]; CCRF-CEM, 5 μM dG + 1 μM BCX-1777, 72 h", "value": "eradicated"}, {"measurement": "proliferation, crystal violet", "setting": "HCC827 cells [15]", "value": "proliferation inhibition"}, {"measurement": "anti-proliferative effect of the combination with dG", "setting": "B-ALL cell lines", "value": "unaffected"}, {"measurement": "anti-proliferative effect of the combination with dG", "setting": "MOLT-4 cells", "value": "eradicated"}]}
{"compound": "Cc1cn([C@H]2C[C@H](O)[C@@H](CO)O2)c(=O)[nH]c1=O", "note": "[thymidine]", "values": [{"measurement": "induction of pCHEK1S345 and pH2A.XS139", "setting": "SUIT2 SAMHD1 KO cells [12]; SUIT2 SAMHD1 KO vs WT, 100 μM dT, 24 h", "value": "enhanced"}]}
{"compound": "O=c1[nH]cnc2c(CN3C[C@H](CO)[C@@H](O)C3)c[nH]c12", "note": "[ulodesine]", "values": [{"measurement": "proliferation (ulodesine)", "setting": "SUIT2 SAMHD1 KO cells [1]; SUIT2 CRISPR/Cas9 SAMHD1 knockout, +5 μM dG", "value": "sensitive"}, {"measurement": "proliferation (ulodesine)", "setting": "HCC827 cells [5]; HCC827 (SAMHD1 deficient), 72 h, +5 μM dG", "value": "selectively impaired the proliferation"}, {"measurement": "IC50", "setting": "HCC827 cells [5]", "value": 21, "unit": "nM"}, {"measurement": "proliferation (ulodesine)", "setting": "NALM6 cells [16]", "value": "not exhibiting any activity"}, {"measurement": "proliferation (ulodesine)", "setting": "[9]; CCRF-CEM overexpressing SAMHD1, 72 h, +1 μM dG", "value": "resistance"}, {"measurement": "proliferation (ulodesine)", "setting": "SUIT2 cells [17]", "value": "not exhibiting any activity"}, {"measurement": "proliferation (ulodesine)", "setting": "JURKAT cells; JURKAT (SAMHD1 deficient), 72 h, +1 μM dG", "value": "selectively impaired the proliferation"}, {"measurement": "proliferation (ulodesine)", "setting": "CCRF-CEM cells [14]; CCRF-CEM (SAMHD1 deficient), 72 h, +1 μM dG", "value": "selectively impaired the proliferation"}]}
{"compound": "(R)-DI-82 [dCK inhibitor]", "values": [{"measurement": "effect of dCK inhibitor on PNPi-induced DNA damage", "setting": "SUIT2 SAMHD1 KO cells [12]; SUIT2 SAMHD1 knockout, 5 μM dG + 1 μM forodesine + 1 μM (R)-DI-82, 24 h", "value": "completely prevented"}, {"measurement": "effect of dCK inhibitor on PNPi anti-proliferative effect", "setting": "SUIT2 SAMHD1 KO cells [13]; SUIT2 SAMHD1 knockout, 5 μM dG + 1 μM PNPi + 1 μM dCKi", "value": "completely blocked"}]}
